{"source": "ChEMBL document CHEMBL4706721", "about": "“Novel Pyridazinones as TRPC5 Inhibitors for Treating Kidney Diseases” (ACS Med Chem Lett, 2021)", "data": [{"target": "T1, Short transient receptor potential channel 5 (Homo sapiens, UniProt Q9UL62)", "T1 sequence (Q9UL62 whole entry)": "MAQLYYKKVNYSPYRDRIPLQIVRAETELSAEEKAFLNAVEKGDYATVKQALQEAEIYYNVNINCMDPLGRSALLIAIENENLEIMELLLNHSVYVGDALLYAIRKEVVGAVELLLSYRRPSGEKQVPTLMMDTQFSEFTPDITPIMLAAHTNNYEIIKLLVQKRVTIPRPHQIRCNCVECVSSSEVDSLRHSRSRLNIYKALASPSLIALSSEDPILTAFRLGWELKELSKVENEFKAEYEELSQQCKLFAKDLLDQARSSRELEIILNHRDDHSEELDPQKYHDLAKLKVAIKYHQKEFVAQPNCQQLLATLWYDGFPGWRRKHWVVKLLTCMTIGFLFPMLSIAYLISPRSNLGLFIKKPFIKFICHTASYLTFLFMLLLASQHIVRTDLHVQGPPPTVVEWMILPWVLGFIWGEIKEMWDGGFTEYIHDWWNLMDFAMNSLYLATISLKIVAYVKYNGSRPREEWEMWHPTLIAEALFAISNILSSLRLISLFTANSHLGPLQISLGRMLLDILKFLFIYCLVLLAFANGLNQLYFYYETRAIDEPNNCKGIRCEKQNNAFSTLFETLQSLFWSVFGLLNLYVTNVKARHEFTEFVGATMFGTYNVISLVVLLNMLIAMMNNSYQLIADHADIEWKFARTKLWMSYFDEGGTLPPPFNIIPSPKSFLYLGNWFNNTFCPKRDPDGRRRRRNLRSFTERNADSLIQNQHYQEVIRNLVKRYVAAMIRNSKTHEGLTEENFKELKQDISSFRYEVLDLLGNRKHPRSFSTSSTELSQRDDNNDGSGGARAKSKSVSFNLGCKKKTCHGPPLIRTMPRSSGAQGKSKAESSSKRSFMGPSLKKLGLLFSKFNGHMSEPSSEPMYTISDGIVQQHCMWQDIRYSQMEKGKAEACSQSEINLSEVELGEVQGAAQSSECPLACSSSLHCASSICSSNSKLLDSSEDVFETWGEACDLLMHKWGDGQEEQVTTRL", "assay": "Inhibition of human TRPC5 expressed in HEK293-T-REx cells assessed as decrease in riluzole-induced calcium response preincubated for 5 min followed by riluzole stimulation by Fluo-4 AM dye based FLIPR assay", "format": "cell-based", "units": {"IC50": "nM"}, "values": [{"smiles": "O=c1[nH]ncc(N2CCc3c(ncnc3Oc3ccc(F)cc3Cl)C2)c1Cl", "IC50": "≤ 50"}, {"smiles": "O=c1[nH]ncc(N2CCc3c(ncnc3N(CCO)c3ccc(F)cc3C(F)(F)F)C2)c1Cl", "IC50": "≤ 50"}, {"smiles": "CN(c1cnccc1C(F)(F)F)c1ncnc2c1CCN(c1cn[nH]c(=O)c1Cl)C2", "IC50": "≤ 50"}, {"smiles": "O=c1[nH]ncc(N2CCc3c(ncnc3Oc3ccccc3C(F)(F)F)C2)c1Cl", "IC50": "≤ 50"}, {"smiles": "CCc1c(F)cccc1Oc1ncnc2c1CCN(c1cn[nH]c(=O)c1Cl)C2", "IC50": "≤ 50"}]}]}
